From patent US20250382301A1 (Arizona Board of Regents on Behalf of the University of …, priority 2022, published 2025)

tested on: WNT signaling (TopGFP reporter in Human Colonic Epithelial Cells (HCEC)); test: WNT Reporter Assay (TopGFP reporter); assay type: cell-based; settings: Homo sapiens, stimulated with 10 μM CHIR99021, 24 hours, TopGFP/mCherry
Method: WNT Reporter Assay: Human Colonic Epithelial Cells (HCEC) were cultured using 1×DMEM supplemented with 1% penicillin/streptomycin, 1% Glutamax, and 10% fetal bovine serum in 5% CO2 at 37° C. These cells were previously engineered to express the TopGFP reporter (Addgene #24304) using second generation lentiviral techniques. For the Wnt reporter assay, cells were seeded at 2000 cells per well in a 384-well black screenstar imaging microplates (Greiner #781866) and allowed to adhere overnight. The following day cells were stimulated to induce the Wnt pathway using 10 μM CHIR99021 (Selleck #S1263). […] Cells were incubated for 24 hours before fixing for 30 minutes with 4% paraformaldehyde/sucrose solution. Cells were permeabilized with 0.1% triton-x in PBS for 10 minutes and stained for DAPI for 30 minutes. Plates were imaged on a Nikon Ti2 Eclipse fluorescent microscope for DAPI, GFP, and mCherry. Using Nikon Elements software for analysis, nuclei were segmented based on DAPI and mean object intensity per cell for both TopGFP and the internal control (mCherry) was measured. To calculate the amount of Wnt activity, we took the mean intensity of TopGFP and divided it by the mean intensity of mCherry per cell to normalize individual cells. Curves and EC50s were plotted and calculated using Graphpad Prism software.

EC50 [nM] | Molecule
100 to 1000 | CC(=O)N1CCN(c2ncnc3ccc(-c4ccnc(N)c4)cc23)CC1 [Compound 1, 1-(4-(6-(2-aminopyridin-4-yl)quinazolin-4-yl)piperazin-1-yl)ethan-1-one]
< 100 | Nc1cc(-c2ccc3ncnc(N4CCN(c5ccccc5)CC4)c3c2)ccn1 [Compound 2, 4-(4-(4-phenylpiperazin-1-yl)quinazolin-6-yl)pyridin-2-amine]
< 100 | Nc1cc(-c2ccc3ncnc(N4CCN(c5ccccn5)CC4)c3c2)ccn1 [Compound 3, 4-(4-(4-(pyridin-2-yl)piperazin-1-yl)quinazolin-6-yl)pyridin-2-amine]
< 100 | Nc1cc(-c2ccc3ncnc(N4CCN(c5ccccc5)CC4)c3n2)ccn1 [Compound 4, 4-(4-(4-phenylpiperazin-1-yl)pyrido[3,2-d]pyrimidin-6-yl)pyridin-2-amine]
< 100 | Nc1cc(-c2ccc3ncnc(N4CCN(c5ccccn5)CC4)c3n2)ccn1 [Compound 5, 4-(4-(4-(pyridin-2-yl)piperazin-1-yl)pyrido[3,2-d]pyrimidin-6-yl)pyridin-2-amine]
100 to 1000 | Nc1cc(-c2ccc3ncnc(N4CCN(c5ccncc5)CC4)c3c2)ccn1 [Compound 6, 4-(4-(4-(pyridin-4-yl)piperazin-1-yl)quinazolin-6-yl)pyridin-2-amine]
100 to 1000 | Cn1cc(-c2ccc3ncnc(N4CCN(c5ccccn5)CC4)c3c2)cn1 [Compound 7, 6-(1-methyl-1H-pyrazol-4-yl)-4-(4-(pyridin-2-yl)piperazin-1-yl)quinazoline]
100 to 1000 | FC(F)c1cc(-c2ccc3ncnc(N4CCN(c5ccccn5)CC4)c3c2)ccn1 [Compound 8, 6-(2-(difluoromethyl)pyridin-4-yl)-4-(4-(pyridin-2-yl)piperazin-1-yl)quinazoline]
100 to 1000 | Nc1cc(-c2ccc3ncnc(N4CCN(c5ccncn5)CC4)c3c2)ccn1 [Compound 9, 4-(4-(4-(pyrimidin-4-yl)piperazin-1-yl)quinazolin-6-yl)pyridin-2-amine]
100 to 1000 | Nc1cc(-c2ccc3ncnc(N4CCN(c5ncccn5)CC4)c3c2)ccn1 [Compound 10, 4-(4-(4-(pyrimidin-2-yl)piperazin-1-yl)quinazolin-6-yl)pyridin-2-amine]
> 1000 | Nc1cc(-c2ccc3ncnc(N4CCN(C5COC5)CC4)c3c2)ccn1 [Compound 11, 4-(4-(4-(oxetan-3-yl)piperazin-1-yl)quinazolin-6-yl)pyridin-2-amine]
> 1000 | Cc1cc(-c2ccc3ncnc(N4CCN(c5ccccn5)CC4)c3c2)ccn1 [Compound 12, 6-(2-methylpyridin-4-yl)-4-(4-(pyridin-2-yl)piperazin-1-yl)quinazoline]
> 1000 | Fc1cc(-c2ccc3ncnc(N4CCN(c5ccccn5)CC4)c3c2)ccn1 [Compound 13, 6-(2-fluoropyridin-4-yl)-4-(4-(pyridin-2-yl)piperazin-1-yl)quinazoline]
< 100 | c1ccc(N2CCN(c3ncnc4ccc(-c5cn[nH]c5)cc34)CC2)nc1 [Compound 14, 6-(1H-pyrazol-4-yl)-4-(4-(pyridin-2-yl)piperazin-1-yl)quinazoline]
100 to 1000 | Nc1cc(-c2ccc3ncnc(N4CCN(c5ccccc5F)CC4)c3c2)ccn1 [Compound 15, 4-(4-(4-(2-fluorophenyl)piperazin-1-yl)quinazolin-6-yl)pyridin-2-amine]
< 100 | Nc1cc(-c2ccc3ncnc(N4CCN(c5ccc(C(F)(F)F)cn5)CC4)c3n2)ccn1 [Compound 16, 4-(4-(4-(5-(trifluoromethyl)pyridin-2-yl)piperazin-1-yl)pyrido[3,2-d]pyrimidin-6-yl)pyridin-2-amine]
< 100 | c1ccc(N2CCN(c3ncnc4ccc(-c5c[nH]c6ncccc56)cc34)CC2)nc1 [Compound 17, 4-(4-(pyridin-2-yl)piperazin-1-yl)-6-(1H-pyrrolo[2,3-b]pyridin-3-yl)quinazoline]
< 100 | Nc1cc(-c2ccc3ncnc(N4CCN(c5ccccc5F)CC4)c3n2)ccn1 [Compound 19, 4-(4-(4-(2-fluorophenyl)piperazin-1-yl)pyrido[3,2-d]pyrimidin-6-yl)pyridin-2-amine]
< 100 | Nc1cc(-c2ccc3ncnc(N4CCN(c5ccc(F)cc5)CC4)c3n2)ccn1 [Compound 24, 4-(4-(4-(4-fluorophenyl)piperazin-1-yl)pyrido[3,2-d]pyrimidin-6-yl)pyridin-2-amine]
< 100 | Nc1cc(-c2ccc3nccc(N4CCN(c5ccccc5)CC4)c3c2)ccn1 [Compound 25, 4-(4-(4-phenylpiperazin-1-yl)quinolin-6-yl)pyridin-2-amine]

EC50 [nM] | Molecule
< 100 | c1ccc(N2CCN(c3ccnc4ccc(-c5cn[nH]c5)cc34)CC2)cc1 [Compound 26, 4-(4-phenylpiperazin-1-yl)-6-(1H-pyrazol-4-yl)quinoline]
100 to 1000 | Nc1cc(-c2ccc3ncnc(N4CCN(c5ccc(O)cc5)CC4)c3c2)ccn1 [Compound 27, 4-(4-(6-(2-aminopyridin-4-yl)quinazolin-4-yl)piperazin-1-yl)phenol]
< 100 | Nc1cc(-c2ccc3ncnc(N4CCN(c5ccc(O)cc5)CC4)c3n2)ccn1 [Compound 28, 4-(4-(6-(2-aminopyridin-4-yl)pyrido[3,2-d]pyrimidin-4-yl)piperazin-1-yl)phenol]
< 100 | Nc1cc(-c2ccc3nccc(N4CCN(c5ccccn5)CC4)c3c2)ccn1 [Compound 29]
< 100 | Nc1cc(-c2ccc3nccc(N4CCN(c5ccc(F)cc5)CC4)c3c2)ccn1 [Compound 30, 4-(4-(4-(4-fluorophenyl)piperazin-1-yl)quinolin-6-yl)pyridin-2-amine]
100 to 1000 | Nc1cc(-c2ccc3ncnc(N4CCN(c5ccc(F)cc5)CC4)c3c2)ccn1 [Compound 31, 4-(4-(4-(4-fluorophenyl)piperazin-1-yl)quinazolin-6-yl)pyridin-2-amine]
< 100 | O=C1CN(c2ncnc3ccc(-c4cn[nH]c4)cc23)CCN1c1ccccc1 [Compound 32, 4-(6-(1H-pyrazol-4-yl)quinazolin-4-yl)-1-phenylpiperazin-2-one]
100 to 1000 | Nc1cc(-c2ccc3nccc(N4CCN(c5ccccc5F)CC4)c3c2)ccn1 [Compound 33, 4-(4-(4-(2-fluorophenyl)piperazin-1-yl)quinolin-6-yl)pyridin-2-amine]
100 to 1000 | Cc1ccc(N2CCN(c3ccnc4ccc(-c5ccnc(N)c5)cc34)CC2)c(C)c1 [Compound 34, 4-(4-(4-(2,4-dimethylphenyl)piperazin-1-yl)quinolin-6-yl)pyridin-2-amine]
100 to 1000 | COc1cc2c(cc1OC)CN(c1ncnc3ccc(-c4ccnc(N)c4)cc13)CC2 [Compound 35, 4-(4-(6,7-dimethoxy-3,4-dihydroisoquinolin-2(1H)-yl)quinazolin-6-yl)pyridin-2-amine]
< 100 | Fc1ccc(CN2CCCN(c3ncnc4ccc(-c5cn[nH]c5)cc34)CC2)cc1 [Compound 36, 4-(4-(4-fluorobenzyl)-1,4-diazepan-1-yl)-6-(1H-pyrazol-4-yl)quinazoline]
< 100 | Nc1cc(-c2ccc3ncnc(N4CCN(c5cccnc5)CC4)c3c2)ccn1 [Compound 37, 4-(4-(4-(pyridin-3-yl)piperazin-1-yl)quinazolin-6-yl)pyridin-2-amine]
100 to 1000 | Nc1cc(-c2ccc3ncnc(N4CCN(c5ccccc5)C(=O)C4)c3c2)ccn1 [Compound 38, 4-(6-(2-aminopyridin-4-yl)quinazolin-4-yl)-1-phenylpiperazin-2-one]
100 to 1000 | Nc1cc(-c2ccc3ncnc(N4CCN(c5ccc(F)cc5F)CC4)c3c2)ccn1 [Compound 39, 4-(4-(4-(2,4-difluorophenyl)piperazin-1-yl)quinazolin-6-yl)pyridin-2-amine]
100 to 1000 | Fc1ccccc1N1CCN(c2ncnc3ccc(-c4cnoc4)nc23)CC1 [Compound 40, 4-(4-(4-(2-fluorophenyl)piperazin-1-yl)pyrido[3,2-d]pyrimidin-6-yl)isoxazole]
100 to 1000 | Nc1cc(-c2ccc3ncnc(N4CCCN(Cc5ccc(F)cc5)CC4)c3c2)ccn1 [Compound 41, 4-(4-(4-(4-fluorobenzyl)-1,4-diazepan-1-yl)quinazolin-6-yl)pyridin-2-amine]
> 1000 | Cn1cc(-c2ccc3ncnc(N4CCN(Cc5ccc(F)cc5)CC4)c3c2)cn1 [Compound 42, 4-(4-(4-fluorobenzyl)piperazin-1-yl)-6-(1-methyl-1H-pyrazol-4-yl)quinazoline]
100 to 1000 | Nc1cc(-c2ccc3ncnc(N4CCN(Cc5ccc(F)cc5)CC4)c3c2)ccn1 [Compound 43, 4-(4-(4-(4-fluorobenzyl)piperazin-1-yl)quinazolin-6-yl)pyridin-2-amine]
100 to 1000 | C[C@@H]1CN(c2ccccn2)CCN1c1ncnc2ccc(-c3ccnc(N)c3)cc12 [Compound 44, (R)-4-(4-(2-methyl-4-(pyridin-2-yl)piperazin-1-yl)quinazolin-6-yl)pyridin-2-amine]
< 100 | C[C@H]1CN(c2ccccn2)CCN1c1ncnc2ccc(-c3ccnc(N)c3)cc12 [Compound 45, (S)-4-(4-(2-methyl-4-(pyridin-2-yl)piperazin-1-yl)quinazolin-6-yl)pyridin-2-amine]

same assay, conditions: stimulated with 10 μM CHIR99021, 24 hours, TopGFP/mCherry

EC50 [nM] | Molecule
> 1000 | 4-(4-(2-fluorophenyl)piperazin-1-yl)-6-(1-methyl-1H-pyrazol-3-yl)pyrido[3,2-d]pyrimidine [Compound 20]
< 100 | 4-(4-(2-fluorophenyl)piperazin-1-yl)-6-(1H-pyrazol-3-yl)pyrido[3,2-d]pyrimidine [Compound 23]
> 1000 | 6-(1-methyl-1H-pyrazol-3-yl)-4-(4-(5-(trifluoromethyl)pyridin-2-yl)piperazin-1-yl)pyrido[3,2-d]pyrimidine [Compound 21]
< 100 | 6-(1H-pyrazol-3-yl)-4-(4-(5-(trifluoromethyl)pyridin-2-yl)piperazin-1-yl)pyrido[3,2-d]pyrimidine [Compound 22]
< 100 | 6-(1H-pyrazol-3-yl)-4-(4-(pyridin-2-yl)piperazin-1-yl)pyrido[3,2-d]pyrimidine [Compound 18]
